Like-named read-outs stand apart in the source and are kept apart here.
Legend:
[1] = tested on: MCF-10A; assay: MTT cell viability assay on noncancerous MCF-10A cells, dark and 450 nm irradiation; type: cell-based, human; details: for EC50: MTT
Text: (C∧N) cyclometalated Pt(II) complexes have been previously reported to have strong antiproliferative activities when associated with phenanthroline-based, diphosphine, acyclic diamino carbenes, or picolinate ligands. In particular, (Me2N-pbt)-cyclometalated platinum complexes have been previously reported by some of us to have antiproliferative properties in the micromolar range on a panel of cancer cell lines, prompting us to investigate the anticancer properties of complexes 1–4 in dark conditions and, considering their high quantum yield (ϕΔ) of ^1O2 generation, under irradiation conditions. Due to the poor solubility of the complexes in an aqueous environment, complexes 1–4 were first dissolved in DMSO and diluted in the culture media to reach a final concentration of 1% DMSO when incubated with the cells. All complexes were screened against the so-called “triple-negative” breast cancer cell line MDA-MB-231, lung adenocarcinoma cell line A549, and the noncancerous breast cell line MCF-10A for 72 h in dark conditions and under 5 min irradiation at 450 nm (see Experimental Section for details). The irradiation time was kept short to prevent light-induced toxicity of the energetic wavelength observed at longer irradiation times (data not shown). The measurement of the effective concentration at 50% (EC50) was carried out using the classical MTT assay, and the data are provided in Table .
In dark conditions, we could notice a strong influence of substituents on the picolinate ligands. […] This can be correlated with its poor stability in the culture medium mentioned above, which might reduce its cellular uptake. […] However, in dark conditions, no particular selectivity for cancer cells could be observed with similar activity measured against the noncancerous cell line MCF-10A. For the “light” experiments, the cells were preincubated with the complexes for 4 h in the dark, irradiated at 450 nm for 5 min, and then put back in the dark until 72 h. The photoactivity index (PI) values, defined as the ratio between the EC50 in dark conditions and the EC50 after irradiation for each cell line, are shown in Figure .
The human lung adenocarcinoma cell line A549 and human breast cancer cell line MDA-MB-231 were cultivated in DMEM (Dulbecco’s modified Eagle’s medium) containing GlutaMax I supplemented with 10% FBS at 37 °C in a humidified atmosphere and 5% CO2. The noncancerous cell line MCF-10A was maintained in DMEM:F12 (1:1) cell culture media, 5% heat-inactivated horse serum, supplemented with HEPES (20 mM), L-glutamine (2 mM), epidermal growth factor (20 ng/mL), hydrocortisone (500 ng/mL), cholera toxin (100 ng/mL), and insulin (10 μg/mL). Cell viability was evaluated by using a colorimetric method based on the tetrazolium salt MTT [3-(4,5-dimethylthiazol-2-yl)-2,5-diphenyltetrazolium bromide], which is reduced by viable cells to yield purple formazan crystals. Cells were seeded in 96-well plates at a density of 40000 cells/mL (100 μL per well). Stock solutions were prepared in DMSO for complexes 1–4 and in water for cisplatin. […] For dark experiments, after overnight attachment, a dilution series of the compounds was added to the medium, and the cells were incubated for a further 72 h. For the irradiated experiments, after overnight attachment, a dilution series of the compounds was added to the medium, and the cells were preincubated for 4 h. The cells were then irradiated at 450 nm for 5 min with a Kessil Lamp (power: 3 mW/cm^2, 1.13 × 10^–8 Einstein/s at 20 cm distance between the light source and 96-well plate) and the incubation was continued until 72 h. After 72 h, the medium was removed and the cells were incubated with MTT solution in PBS (10 μL of 5 mg/mL) for 2–3 h. The formed purple formazan crystals were dissolved in 100 μL of DMSO by thorough shaking, and the absorbance at 580 nm was read using a microplate reader (FLUOstar OPTIMA, BMG Labtech). Each test was performed with at least 3 replicates and repeated at least 3 times. […]

[2] = tested on: MDA-MB-231 cells; assay: Intracellular ROS production with H2DCFDA probe; type: cell-based, human
Experimental: Cyclometalated complexes of various metals, including Ir(III), Rh(III), Pt(II), and Au(III), have been reported to induce overproduction of reactive oxygen species (ROS), inducing oxidative stress leading to cell death. […] Following the protocol used for cytotoxicity assays, cells were incubated with 3 for 4 h in the dark at 37 °C (dark conditions) or incubated with 3 for 4 h in the dark at 37 °C, followed by 5 min of irradiation at 450 nm (irradiation conditions). ROS production was measured using the nonspecific ROS probe 2′,7′-dichlorodihydrofluorescein diacetate (H2DCFDA) (Figures and S36).
11 ROS production upon incubation of MDA-MB-231 cells for 4 h at 37 °C (dark) or for 4 h at 37 °C + 5 min irradiation at 450 nm (irradiation) with complex 3 (5, 2, 1, or 0.5 μM), expressed as the mean fluorescence intensity normalized to DMSO negative controls. […]
Triple-negative breast cancer cells MDA-MB-231 were seeded in 6-well plates at a concentration of 150 000 cells/well in 1.5 mL DMEM (Dulbecco’s modified Eagle’s medium) containing GlutaMax I supplemented with 10% FBS. […] Microscopy images were recorded in brightfield and GFP filter modes using an EVOS M5000 microscope with a 10× objective. Cell confluency was assessed on the brightfield images using EVOS M5000 microscope software, and quantification of green fluorescence was performed using Fiji software. […]

Q: Which “photoactivity index (PI), EC50 dark / EC50 after irradiation, MCF-10A” value ([1]; 5 min irradiation at 450 nm) does the source give for “[Pt(Me2N-pbt)(3-OH-pic-κN,O)] [Complex 3]” here?
A: < 2

Q: And the EC50 ([1]; 4 h preincubation, 5 min irradiation at 450 nm, then dark until 72 h, read-out: EC50 MCF-10A light)?
A: 520 ± 50 nM

Q: What about the EC50 ([1]; 72 h incubation at 37 °C, dark, read-out: EC50 MCF-10A dark) of the same substance?
A: 1000 ± 200 nM

Q: What about the “ROS production (H2DCFDA green fluorescence), dark” value ([2]; MDA-MB-231, 0.5, 1, 2 or 5 μM, 4 h at 37 °C in the dark) of the same substance?
A: dose-dependent increase of green fluorescence

Q: And the “ROS production (H2DCFDA green fluorescence), irradiation versus dark” value ([2]; MDA-MB-231, 4 h at 37 °C + 5 min irradiation at 450 nm)?
A: statistically significant increase of ROS production

From PMC12176268, “Structural Features and Photophysical and Antiproliferative Properties of Me2N‑pbt-Cycloplatinated Complexes with Picolinate Ligands” (Inorganic Chemistry, 2025)
